Laboratory results reported in the OPERA property sets (Mansouri et al. 2018).

Conditions: for log10 BCF / log10 biotransformation half-life (days): fish

Row | Compound | boiling point | melting point | further results
1 | ClCCI | 140 °C | -15.6 °C | –
2 | Clc1cc(-c2c(Cl)cccc2Cl)c(Cl)c(Cl)c1Cl | – | – | log10 Henry constant (atm·m³/mol): -4.41
3 | O=C(O)c1cccc(F)c1F | – | 164 °C | –
4 | CCc1nc(CC)nc(NS(=O)(=O)c2ccc(N)cc2)n1 | – | 187 °C | ready biodegradability: not readily biodegradable
5 | CC/C=C\CCCC | 123 °C | -118 °C | –
6 | CC(C)OP(=O)(OC(C)C)SCc1ccccc1 | – | – | log10 Koc (L/kg): 2.26; log10 vapour pressure (mmHg): -4.39; log10 BCF: 0.94; log10 biotransformation half-life (days): -1.2
7 | FC(F)(F)c1ccc(Br)cc1 | 160 °C | – | –
8 | CCCCCCCl | 135 °C | -94 °C | log10 Henry constant (atm·m³/mol): -1.62; log10 vapour pressure (mmHg): 0.972
9 | COc1ccccc1N1CCN(CCCC(=O)c2ccc(F)cc2)CC1 | – | 68 °C | –
10 | NC(=O)CC(N)C(=O)O (centres undefined) | – | 234 °C | –
11 | O=C1c2ccccc2-c2ccc(Cl)cc21 | – | 126 °C | –
12 | ClC(Cl)Br | 90 °C | -57 °C | log10 Henry constant (atm·m³/mol): -2.67; log10 Koc (L/kg): 1.78; ready biodegradability: readily biodegradable
13 | CC(C#N)c1ccccc1 (centres undefined) | 231 °C | – | –
14 | CC(C)CC1Nc2cc(Cl)c(S(N)(=O)=O)cc2S(=O)(=O)N1 (centres undefined) | – | 222 °C | –
15 | C=CC(O)CC (centres undefined) | 115 °C | – | –
16 | Clc1ccncc1 | 148 °C | -43.5 °C | –
17 | COc1ccc(O)c([N+](=O)[O-])c1 | – | 79 °C | log10 Henry constant (atm·m³/mol): -5.73
18 | CC1(C)OC(c2ccco2)CN1C(=O)C(Cl)Cl (centres undefined) | – | 97 °C | log10 vapour pressure (mmHg): -7.31
19 | N#CCCN1CCCCC1 | – | -6.8 °C | –
20 | C=CC(C)(C)CCC | 104 °C | – | –
21 | CCOC(O)C(F)(F)F (centres undefined) | 104 °C | – | –
22 | Cc1ccccc1CO[C@H]1C[C@]2(C(C)C)CC[C@@]1(C)O2 (single isomer, unassigned) | 313 °C | – | log10 Koc (L/kg): 2.6; log10 vapour pressure (mmHg): -4.12
23 | [O-][n+]1ccccc1S | – | 70.5 °C | –
24 | CCCCOCC | 92.3 °C | -124 °C | log10 vapour pressure (mmHg): 1.71
25 | Clc1ccccc1 | 132 °C | -45.2 °C | log10 Henry constant (atm·m³/mol): -2.51; log10 Koa: 3.31; log10 Koc (L/kg): 2.15; log10 vapour pressure (mmHg): 1.08; ready biodegradability: not readily biodegradable; log10 BCF: 1.25; log10 biotransformation half-life (days): -1.02

Row | Compound | boiling point | melting point | further results
26 | C/C=C(C)/C=C/C=C(C)C | 188 °C | – | –
27 | CCC(Cc1ccccc1)c1ccccc1 (centres undefined) | 290 °C | – | –
28 | CCOC(=O)CCCOc1ccc(Cl)cc1C | – | -1 °C | log10 vapour pressure (mmHg): -5.84
29 | [N-]=[N+]=Nc1ccc(Br)cc1 | – | 20 °C | –
30 | Cc1cc(C)cc(C(=O)O)c1 | – | 171 °C | –
31 | c1ccc(CCCC2CCCC2)cc1 | 272 °C | – | –
32 | COP(=O)(OC)OC=C(Cl)Cl | 234 °C | -60 °C | log10 Koc (L/kg): 1.67; log10 vapour pressure (mmHg): -1.8; ready biodegradability: readily biodegradable; log10 BCF: -0.3
33 | O=C(O)C(F)(F)F | 73 °C | -15.2 °C | log10 Henry constant (atm·m³/mol): -6.95; log10 vapour pressure (mmHg): 2.04
34 | CC(C)(C#N)O[C@@H]1O[C@H](CO)[C@@H](O)[C@H](O)[C@H]1O | – | 145 °C | –
35 | C#Cc1ccc(C)cc1 | 169 °C | – | –
36 | CCOC(=O)COc1cccc2ccccc12 | – | 56.5 °C | –
37 | Cc1ccc(/N=N/c2c(O)ccc3ccccc23)c(C)c1 | – | 166 °C | –
38 | O=C(O)c1cccc(C(=O)O)c1 | – | 347 °C | ready biodegradability: readily biodegradable
39 | Oc1cccc(Cl)c1Cl | 206 °C | 58 °C | log10 Koc (L/kg): 2.66; log10 vapour pressure (mmHg): -1.24; ready biodegradability: not readily biodegradable; log10 BCF: 1.13
40 | CC(Br)(Br)CBr | 190 °C | – | –
41 | Cc1ccc2ccc(C)nc2c1 | 264 °C | 61 °C | –
42 | CC(C)(C)c1ccccc1O | 223 °C | -6.8 °C | log10 vapour pressure (mmHg): -1.05
43 | Clc1cc2c(cc1Cl)Oc1cc(Cl)c(Cl)cc1O2 | – | 305 °C | log10 Koa: 10.1; log10 Koc (L/kg): 6.5; log10 vapour pressure (mmHg): -8.82; ready biodegradability: not readily biodegradable; log10 BCF: 4.99; log10 biotransformation half-life (days): 1.78
44 | NC(=O)COC(=O)c1ccccc1 | – | 121 °C | –
45 | O=C(O)c1cccc(F)c1 | – | 124 °C | –
46 | CCCCCCCCCCCCCCCCCCOC(=O)CCc1cc(C(C)(C)C)c(O)c(C(C)(C)C)c1 | – | – | ready biodegradability: not readily biodegradable
47 | ClCCl | 40 °C | -95.1 °C | log10 Henry constant (atm·m³/mol): -2.49; log10 Koa: 2.27; log10 Koc (L/kg): 1.44; log10 vapour pressure (mmHg): 2.64; ready biodegradability: not readily biodegradable; log10 BCF: 1.36; log10 biotransformation half-life (days): -0.51
48 | CCNc1nc(Cl)nc(NCC)n1 | – | 226 °C | log10 Koc (L/kg): 2.1; log10 vapour pressure (mmHg): -7.66; ready biodegradability: not readily biodegradable; log10 BCF: 0.56; log10 biotransformation half-life (days): -0.94
49 | Nc1nc2c(ncn2COCCO)c(=O)[nH]1 | – | 255 °C | –
